Experimental data reported in patent publication US20240174671A1, “New 2,3-Dihydro-1H-pyrrolo[3,2-b]pyridine Derivatives as Sigma Ligands” (ACONDICIONAMIENTO TARRASENSE, priority 2021, published 2024).
Like-named read-outs stand apart in the source and are kept apart here.

Columns and labels:
human σ2/TMEM97 receptor = biological target: T1, human σ2/TMEM97 receptor (Homo sapiens, UniProt Q5BJF2); test: Binding assay to human σ2/TMEM97 receptor ([3H]-DTG); conditions: transfected HEK-293 membranes, 10 nM [3H]-DTG, 25° C., 120 minutes; read-out: Binding σ-[…] (binding to σ2-receptor expressed as Ki)
T1 construct: expressed in transfected cells; host or cells: HEK-293
T1 sequence (Q5BJF2 whole entry): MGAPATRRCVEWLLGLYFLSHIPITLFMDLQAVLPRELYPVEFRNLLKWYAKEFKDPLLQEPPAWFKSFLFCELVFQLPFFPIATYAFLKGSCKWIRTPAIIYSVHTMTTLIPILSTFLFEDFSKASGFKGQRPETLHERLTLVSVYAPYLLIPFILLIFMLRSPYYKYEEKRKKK
Experimental: Binding Assay to Human σ2/TMEM97 Receptor.
Transfected HEK-293 membranes (15 μg) were incubated with 10 nM [^3H]-1,3-Di-o-tolylguanidine (DTG) in assay buffer containing Tris-HCl 50 mM at pH 8.0. NSB (non-specific binding) was measured by adding 10 μM haloperidol. The binding of the test compound was measured at either one concentration (% inhibition at 1 or 10 µM) or five different concentrations to determine affinity values (Ki). Plates were incubated at 25° C. for 120 minutes. After the incubation period, the reaction mix was transferred to MultiScreen HTS, FC plates (Millipore), filtered and washed 3 times with ice-cold 10 mM Tris-HCL (pH 8.0). Filters were dried and counted at approximately 40% efficiency in a MicroBeta scintillation counter (Perkin-Elmer) using EcoScint liquid scintillation cocktail.

human σ1 receptor = biological target: T2, human σ1 receptor (Homo sapiens, UniProt Q99720); test: Human σ1 receptor radioligand assay ([3H](+)-pentazocine); format: binding
T2 construct: expressed in transfected cells; host or cells: HEK-293
T2 sequence (Q99720 whole entry): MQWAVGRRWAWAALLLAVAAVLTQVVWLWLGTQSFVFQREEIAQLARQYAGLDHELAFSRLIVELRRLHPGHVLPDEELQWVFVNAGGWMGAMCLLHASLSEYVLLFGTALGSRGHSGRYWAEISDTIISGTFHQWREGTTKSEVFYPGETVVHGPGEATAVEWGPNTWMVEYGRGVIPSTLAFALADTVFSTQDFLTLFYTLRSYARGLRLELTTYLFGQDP
Experimental: Human σ1 Receptor Radioligand Assay
NBS (non-specific binding) was measured by adding 10 μM haloperidol. The binding of the test compound was measured at either one concentration (% inhibition at 1 or 10 µM) or five different concentrations to determine affinity values (Ki). Plates were incubated at 37° C. for 120 minutes. After the incubation period, the reaction mix was then transferred to MultiScreen HTS, FC plates (Millipore), filtered and plates were washed 3 times with ice-cold 10 mM Tris-HCL (pH7.4). Filters were dried and counted at approximately 40% efficiency in a MicroBeta scintillation counter (Perkin-Elmer) using EcoScint liquid scintillation cocktail.

[1] = transfected HEK-293 membranes, 5 nM [3H](+)-pentazocine, 37° C., 120 minutes, read-out: Binding σ-[…] (binding to σ1-receptor expressed as Ki)

SMILES	Ki (human σ2/TMEM97 receptor) [nM]	Ki (human σ1 receptor; [1]) [nM]	Ki (human σ1 receptor) [nM]
CN(Cc1ccccc1)[C@H]1CC[C@H](C(=O)N2CC(C)(C)c3ncc(F)cc32)CC1 [Example 187, ((1r,4r)-4-(benzyl(methyl)amino)cyclohexyl)(6-fluoro-3,3-dimethyl-2,3-dihydro-1H-pyrrolo[3,2-b]pyridin-1-yl)methanone]	< 100	< 100	
Cc1ccc2c(n1)C(C)(C)CN2C(=O)N1CCC2(CCN(CC3CCOCC3)CC2)C1 [Example 105, (8-((tetrahydro-2H-pyran-4-yl)methyl)-2,8-diazaspiro[4.5]decan-2-yl)(3,3,5-trimethyl-2,3-dihydro-1H-pyrrolo[3,2-t]pyridin-1-yl)methanone]	< 100	500 to 1000	
CN(Cc1ccccc1)[C@H]1CC[C@@H](NC(=O)N2CC(C)(C)c3ncccc32)CC1 [Example 72, N-((1s,4s)-4-(benzyl(methyl)amino)cyclohexyl)-3,3-dimethyl-2,3-dihydro-1H-pyrrolo[3,2-b]pyridine-1-carboxamide]	< 100	< 100	
Cc1ccc2c(n1)C(C)(C)CN2C(=O)[C@H]1CC[C@H](N(C)Cc2ccccc2)CC1 [Example 140, ((1r,4r)-4-(benzyl(methyl)amino)cyclohexyl)(3,3,5-trimethyl-2,3-dihydro-1H-pyrrolo[3,2-b]pyridin-1-yl)methanone]	< 100	< 100	
CN(Cc1cccc(F)c1)C1CCN(C(=O)N2CC(C)(C)c3ncccc32)CC1 [Example 85, (3,3-dimethyl-2,3-dihydro-1H-pyrrolo[3,2-b]pyridin-1-yl)(4-((3-fluorobenzyl)(methyl)amino)piperidin-1-yl)methanone]	100 to 500	500 to 1000	
Cc1ccc2c(n1)C(C)(C)CN2C(=O)N1CCC(N(C)Cc2ccccn2)CC1 [Example 73, (4-(methyl(pyridin-2-ylmethyl)amino)piperidin-1-yl)(3,3,5-trimethyl-2,3-dihydro-1H-pyrrolo[3,2-b]pyridin-1-yl)methanone]	500 to 1000	> 1000	
Cc1ccc2c(n1)C(C)(C)CN2C(=O)N1CCC2(CCN(Cc3cccnc3)CC2)C1 [Example 98, (8-(pyridin-3-ylmethyl)-2,8-diazaspiro[4.5]decan-2-yl)(3,3,5-trimethyl-2,3-dihydro-1H-pyrrolo[3,2-b]pyridin-1-yl)methanone]	< 100	> 1000	
Cc1ccc2c(n1)C(C)(C)CN2C(=O)NCC(c1ccccc1)N(C)C (stereo not drawn) [Example 2, N-(2-(dimethylamino)-2-phenylethyl)-3,3,5-trimethyl-2,3-dihydro-1H-pyrrolo[3,2-b]pyridine-1-carboxamide]	> 1000		< 100
Cc1ccc2c(n1)C(C)(C)CN2C(=O)NC[C@@H](c1cccc(F)c1)N(C)C [Example 34, (R)—N-(2-(dimethylamino)-2-(3-fluorophenyl)ethyl)-3,3,5-trimethyl-2,3-dihydro-1H-pyrrolo[3,2-b]pyridine-1-carboxamide]	> 1000	100 to 500	
CC1(C)CN(C(=O)NC2CCN(Cc3ccccc3)CC2)c2cccnc21 [Example 32, N-(1-benzylpiperidin-4-yl)-3,3-dimethyl-2,3-dihydro-1H-pyrrolo[3,2-b]pyridine-1-carboxamide]	> 1000	< 100	
Cc1ccc2c(n1)C(C)(C)CN2C(=O)NC1CCN(CCc2ccccc2)CC1 [Example 27, 3,3,5-trimethyl-N-(1-phenethylpiperidin-4-yl)-2,3-dihydro-1H-pyrrolo[3,2-b]pyridine-1-carboxamide]	< 100		100 to 500
Cc1ccc2c(n1)C(C)(C)CN2C(=O)N1CCC2(CCN(Cc3ccc(F)c(C#N)c3)CC2)CC1 [Example 162, 2-fluoro-5-((9-(3,3,5-trimethyl-2,3-dihydro-1H-pyrrolo[3,2-b]pyridine-1-carbonyl)-3,9-diazaspiro[5.5]undecan-3-yl)methyl)benzonitrile]	100 to 500	100 to 500	
Cc1ccc2c(n1)C(C)(C)CN2C(=O)C1CN(Cc2ccccc2)C1 [Example 131, (1-benzylazetidin-3-yl)(3,3,5-trimethyl-2,3-dihydro-1H-pyrrolo[3,2-b]pyridin-1-yl)methanone]	> 1000	< 100	
CN(C)[C@@H](CNC(=O)N1CC(C)(C)c2ncc(F)cc21)c1ccccc1 [Example 20, (R)—N-(2-(dimethylamino)-2-phenylethyl)-6-fluoro-3,3-dimethyl-2,3-dihydro-1H-pyrrolo[3,2-b]pyridine-1-carboxamide]	> 1000	< 100	
Cc1ccc2c(n1)C(C)(C)CN2C(=O)NC[C@@H](c1ccc(F)cc1)N(C)C [Example 33, (R)—N-(2-(dimethylamino)-2-(4-fluorophenyl)ethyl)-3,3,5-trimethyl-2,3-dihydro-1H-pyrrolo[3,2-b]pyridine-1-carboxamide]	> 1000	< 100	
Cc1ccc2c(n1)C(C)(C)CN2C(=O)N1CCC2(CCN(Cc3ccccc3)C2)C1 (stereo not drawn) [Example 37, (7-benzyl-2,7-diazaspiro[4.4]nonan-2-yl)(3,3,5-trimethyl-2,3-dihydro-1H-pyrrolo[3,2-b]pyridin-1-yl)methanone]	< 100	100 to 500	
CC1(C)CN(C(=O)N2CCC3(CCN(Cc4ncccc4F)CC3)C2)c2cccnc21 [Example 153]	100 to 500	> 1000	
Cc1ccc2c(n1)C(C)(C)CN2C(=O)N1CCC(CN(C)Cc2ccccc2)CC1 [Example 66, (4-((benzyl(methyl)amino)methyl)piperidin-1-yl)(3,3,5-trimethyl-2,3-dihydro-1H-pyrrolo[3,2-b]pyridin-1-yl)methanone]	100 to 500	100 to 500	
Cc1ccc2c(n1)C(C)(C)CN2C(=O)[C@H]1CC[C@H](N(C)Cc2cccc(F)c2)CC1 [Example 169, ((1r,4r)-4-((3-fluorobenzyl)(methyl)amino)cyclohexyl)(3,3,5-trimethyl-2,3-dihydro-1H-pyrrolo[3,2-b]pyridin-1-yl)methanone]	< 100	< 100	
CC1(C)CN(C(=O)NC2CCN(Cc3ccc(F)c(F)c3)CC2)c2cccnc21 [Example 46, N-(1-(3,4-difluorobenzyl)piperidin-4-yl)-3,3-dimethyl-2,3-dihydro-1H-pyrrolo[3,2-b]pyridine-1-carboxamide]	> 1000	< 100	
CN(Cc1ccccc1)C1CCN(C(=O)N2CCc3ncccc32)CC1 [Example 51, (4-(benzyl(methyl)amino)piperidin-1-yl)(2,3-dihydro-1H-pyrrolo[3,2-b]pyridin-1-yl)methanone]	100 to 500	< 100	
Cc1ccc2c(n1)C(C)(C)CN2C(=O)C1CN(Cc2ccc(F)cc2)C1 [Example 133, (1-(4-fluorobenzyl)azetidin-3-yl)(3,3,5-trimethyl-2,3-dihydro-1H-pyrrolo[3,2-b]pyridin-1-yl)methanone]	> 1000	< 100	
CC1(C)CN(C(=O)NCC2CCN(CCc3ccccc3)CC2)c2cccnc21 [Example 70, 3,3-dimethyl-N-((1-phenethylpiperidin-4-yl)methyl)-2,3-dihydro-1H-pyrrolo[3,2-b]pyridine-1-carboxamide]	100 to 500	> 1000	
Cc1ccc2c(n1)C(C)(C)CN2C(=O)N1CCC2(CCN(Cc3ccccc3)CC2)C1 [Example 80, (8-benzyl-2,8-diazaspiro[4.5]decan-2-yl)(3,3,5-trimethyl-2,3-dihydro-1H-pyrrolo[3,2-b]pyridin-1-yl)methanone]	< 100	100 to 500	
